{
  "source": "patent US20240408047A1",
  "about": "“HYPOXIA INDUCIBLE FACTOR-2(ALPHA) INHIBITORS FOR THE TREATMENT OF BLADDER CANCER” (NIKANG THERAPEUTICS, INC., priority 2021, published 2024)",
  "key": {"[1]": {"tested_on": "RT4 xenograft model", "assay": "Anti-tumor effect in mouse bladder cancer xenograft model RT4", "type": "in vivo, Balb/c Nude mouse", "method": "(§1) Compound 1 was formulated with 0.5% methylcellulose. 4˜10×10^6 tumor cells in PBS and Corning® Matrigel (11 in volume) were inoculated subcutaneously at right flank for each Balb/c Nude mouse at 6-7 weeks of age for tumor development. Once tumors were 100-200 mm^3 in size, the tumor bearing mice were randomly grouped into 2 groups (n=8) and treatment started with vehicle bid and Compound 1 at 20 mg/kg bid, respectively, for 17-30 days. Tumor sizes were measured twice weekly in two dimensions using a caliper and the volumes were expressed in mm^3 using the formula V=0.5×a×b^2 where a and b were the long and short diameters of the tumor, respectively."}, "[2]": {"tested_on": "T24 cells", "assay": "Hypoxia-induced mRNA upregulation of VEGFA and GLUT1 in T24 cells (quantitative PCR)", "type": "cell-based", "conditions": "72 h, hypoxic (1% O2), Compound 1 at 1.0 μM", "method": "T24 cells were treated with DMSO or 1.0 μM of Compound 1; control siRNA or siRNA specific for HIF-1α, HIF-2α, for 72 h under normoxic (20% O2) or hypoxic (1% O2) conditions. Total RNA was extracted using RNeasy mini kit (Qiagen, Catalog #74104) and QIAshredder (Qiagen, Catalog #79654). Then RNA was reverse-transcribed into cDNA using Applied Biosystems™ High-Capacity cDNA Reverse Transcription Kit (Applied Biosystems™ cat #4368814). The cDNA was used as templates to examine the mRNA expression of VEGFA and GLUT1 by quantitative polymerase chain reaction (PCR) assays (PowerUp SYBR Green Master Mix by Applied Biosystems™, cat #A25742), with GAPDH serving as control for normalization."}, "[3]": {"tested_on": "RT112 xenograft model", "assay": "Anti-tumor effect in mouse bladder cancer xenograft model RT112", "type": "in vivo, Balb/c Nude mouse", "conditions": "20 mg/kg bid, 17-30 days", "method": "as §1"}, "[4]": {"tested_on": "T24 xenograft model", "assay": "Anti-tumor effect in mouse bladder cancer xenograft model T24", "type": "in vivo, Balb/c Nude mouse", "conditions": "20 mg/kg bid, 17-30 days", "method": "as §1"}, "[5]": {"tested_on": "nectin-4", "conditions": "patients who progressed following treatment with chemotherapy and immunotherapy; cited from earlier work"}},
  "data": [
    {"molecule": "N#Cc1cc(F)cc(Oc2ccc3c4c2[C@@H](F)C[C@]4(O)C(F)(F)C3(F)F)c1", "note": "[Compound 1, 3-fluoro-5-(((1S,2aR)-1,3,3,4,4-pentafluoro-2a-hydroxy-2,2a,3,4-tetrahydro-1H-cyclopenta[cd]inden-7-yl)oxy)benzonitrile]", "values": [
      {"measurement": "anti-tumor effect in RT4 xenograft model", "setting": "[1]; 20 mg/kg bid, 17-30 days", "value": "significant tumor growth inhibition"},
      {"measurement": "TGI", "setting": "[1]; RT4 model, 20 mg/kg of Compound 1", "value": 44, "unit": "%"},
      {"measurement": "GLUT1 mRNA level induced by hypoxia", "setting": "[2]", "value": "significantly suppressed"},
      {"measurement": "VEGFA mRNA level induced by hypoxia", "setting": "[2]", "value": "significantly suppressed"},
      {"measurement": "anti-tumor effect in RT112 xenograft model", "setting": "[3]", "value": "marginal anti-tumor effect"},
      {"measurement": "anti-tumor effect in T24 xenograft model", "setting": "[4]", "value": "complete tumor regression"}
    ]},
    {"molecule": "Enfortumab vedotin", "values": [
      {"measurement": "objective response rate", "setting": "[5]", "value": 44, "unit": "%"}
    ]}
  ]
}
